Results published in PubChem BioAssay AID2060614 (Molecular Pharmacology Branch, DTP, NCI, 2025).

Tested on: 598228-144-R-J1-PDC complex spheroids, viability
Assay: Anticancer human tumor 598228-144-R-J1-PDC patient-derived serous endometrial adenocarcinoma cell line growth inhibition [CLK]
Settings: for IC50: curve of first compound; for viability, T/C: stronger effect = lower value
Summary of the method: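 Patient-derived tumor cells grown as complex spheroids with HUVEC endothelial cells and mesenchymal stem cells, treated with drug combinations. Concentrations descend in half-log steps from near clinical Cmax, or from 10 microM if Cmax unknown.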

[1] = second compound 0.0316 µM, first compound 0.0316 µM
[2] = second compound 0.0316 µM, first compound 0.1 µM
[3] = second compound 0.0316 µM, first compound 0.316 µM
[4] = second compound 0.0316 µM, first compound 1 µM
[5] = second compound 0.0316 µM, first compound 3.16 µM
[6] = second compound 0.0316 µM, first compound 10 µM
[7] = second compound 0.1 µM, first compound 0.0316 µM
[8] = second compound 0.1 µM, first compound 0.1 µM
[9] = second compound 0.1 µM, first compound 0.316 µM
[10] = second compound 0.1 µM, first compound 1 µM
[11] = second compound 0.1 µM, first compound 3.16 µM
[12] = second compound 0.1 µM, first compound 10 µM
[13] = second compound 0.316 µM, first compound 0.0316 µM
[14] = second compound 0.316 µM, first compound 0.1 µM
[15] = second compound 0.316 µM, first compound 0.316 µM
[16] = second compound 0.316 µM, first compound 1 µM
[17] = second compound 0.316 µM, first compound 3.16 µM
[18] = second compound 0.316 µM, first compound 10 µM
[19] = second compound 1 µM, first compound 0.0316 µM
[20] = second compound 1 µM, first compound 0.1 µM
[21] = second compound 1 µM, first compound 0.316 µM
[22] = second compound 1 µM, first compound 1 µM
[23] = second compound 1 µM, first compound 3.16 µM
[24] = second compound 1 µM, first compound 10 µM
[25] = second compound 3.16 µM, first compound 0.0316 µM
[26] = second compound 3.16 µM, first compound 0.1 µM
[27] = second compound 3.16 µM, first compound 0.316 µM
[28] = second compound 3.16 µM, first compound 1 µM
[29] = second compound 3.16 µM, first compound 3.16 µM
[30] = second compound 3.16 µM, first compound 10 µM
[31] = second compound 10 µM, first compound 0.0316 µM
[32] = second compound 10 µM, first compound 0.1 µM
[33] = second compound 10 µM, first compound 0.316 µM
[34] = second compound 10 µM, first compound 1 µM
[35] = second compound 10 µM, first compound 3.16 µM
[36] = second compound 10 µM, first compound 10 µM
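Note: spheroids exposed to compounds for seven days before readout.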
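Throughout, for viability, T/C: 100% = DMSO vehicle control wells.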

In the case of `CC(C)CC(NC(=O)C(Cc1ccccc1)NC(=O)c1cnccn1)B(O)O` (stereo unspecified) + CNC(=O)c1ccc(Nc2nc(OC3CCCC3)c3c(-c4ccc5nc(C)oc5c4)c[nH]c3n2)c(OC)c1, the IC50 (second compound 0.0316 µM) is reported as 4.68 nM, the IC50 (second compound 0.1 µM) is reported as 5.05 nM and the IC50 (second compound 0.316 µM) is reported as 3.47 nM. For the same compound, the IC50 (second compound 1 µM) was 2.18 nM, the IC50 (second compound 3.16 µM) was 2.08 nM and the IC50 (second compound 10 µM) was 1.96 nM. It also gave a viability, T/C (second compound 0.0316 µM, first compound 0.000949 µM) of 111%, a viability, T/C (second compound 0.0316 µM, first compound 0.003 µM) of 79.8% and a viability, T/C (second compound 0.0316 µM, first compound 0.00949 µM) of 2.81%. It also gave a viability, T/C (second compound 0.0316 µM, first compound 0.03 µM) of 0.55%, a viability, T/C (second compound 0.0316 µM, first compound 0.0949 µM) of 0.7% and a viability, T/C (second compound 0.0316 µM, first compound 0.3 µM) of 0.37%. For the same compound, the viability, T/C (second compound 0.1 µM, first compound 0.000949 µM) was 127%, the viability, T/C (second compound 0.1 µM, first compound 0.003 µM) was 88.8% and the viability, T/C (second compound 0.1 µM, first compound 0.00949 µM) was 3.14%. The viability, T/C (second compound 0.1 µM, first compound 0.03 µM) was 0.58%, the viability, T/C (second compound 0.1 µM, first compound 0.0949 µM) was 0.44% and the viability, T/C (second compound 0.1 µM, first compound 0.3 µM) was 0.49%. For the same compound, the viability, T/C (second compound 0.316 µM, first compound 0.000949 µM) was 116%, the viability, T/C (second compound 0.316 µM, first compound 0.003 µM) was 56.7% and the viability, T/C (second compound 0.316 µM, first compound 0.00949 µM) was 3.51%. The viability, T/C (second compound 0.316 µM, first compound 0.03 µM) was 0.83%, the viability, T/C (second compound 0.316 µM, first compound 0.0949 µM) was 0.51% and the viability, T/C (second compound 0.316 µM, first compound 0.3 µM) was 0.91%. It also gave a viability, T/C (second compound 1 µM, first compound 0.000949 µM) of 128%, a viability, T/C (second compound 1 µM, first compound 0.003 µM) of 19.7% and a viability, T/C (second compound 1 µM, first compound 0.00949 µM) of 1.31%. It also gave a viability, T/C (second compound 1 µM, first compound 0.03 µM) of 0.56%, a viability, T/C (second compound 1 µM, first compound 0.0949 µM) of 0.77% and a viability, T/C (second compound 1 µM, first compound 0.3 µM) of 1.17%. It also gave a viability, T/C (second compound 3.16 µM, first compound 0.000949 µM) of 128%, a viability, T/C (second compound 3.16 µM, first compound 0.003 µM) of 13.9% and a viability, T/C (second compound 3.16 µM, first compound 0.00949 µM) of 0.9%. For the same compound, the viability, T/C (second compound 3.16 µM, first compound 0.03 µM) was 0.44%, the viability, T/C (second compound 3.16 µM, first compound 0.0949 µM) was 2.9% and the viability, T/C (second compound 3.16 µM, first compound 0.3 µM) was 1.57%. It also gave a viability, T/C (second compound 10 µM, first compound 0.000949 µM) of 115%, a viability, T/C (second compound 10 µM, first compound 0.003 µM) of 11.9% and a viability, T/C (second compound 10 µM, first compound 0.00949 µM) of 2.24%. The viability, T/C (second compound 10 µM, first compound 0.03 µM) was 1.62%, the viability, T/C (second compound 10 µM, first compound 0.0949 µM) was 0.46% and the viability, T/C (second compound 10 µM, first compound 0.3 µM) was 2.11%.
For `CC1COCCN1c1cc(C2(S(C)(=N)=O)CC2)nc(-c2ccnc3[nH]ccc23)n1` (stereo unspecified) + CNC(=O)c1ccc(Nc2nc(OC3CCCC3)c3c(-c4ccc5nc(C)oc5c4)c[nH]c3n2)c(OC)c1, the IC50 (second compound 0.0316 µM) was 9480 nM, the IC50 (second compound 0.1 µM) was > 10000 nM and the IC50 (second compound 0.316 µM) was > 10000 nM. For the same compound, the IC50 (second compound 1 µM) was 6790 nM, the IC50 (second compound 3.16 µM) was 3300 nM and the IC50 (second compound 10 µM) was 2530 nM. For the same compound, the viability, T/C [1] was 101%, the viability, T/C [2] was 107% and the viability, T/C [3] was 100%. It also gave a viability, T/C [4] of 97.3%, a viability, T/C [5] of 73.3% and a viability, T/C [6] of 48.9%. It also gave a viability, T/C [7] of 105%, a viability, T/C [8] of 107% and a viability, T/C [9] of 115%. For the same compound, the viability, T/C [10] was 104%, the viability, T/C [11] was 68.5% and the viability, T/C [12] was 57.5%. It also gave a viability, T/C [13] of 100%, a viability, T/C [14] of 91.3% and a viability, T/C [15] of 112%. It also gave a viability, T/C [16] of 89%, a viability, T/C [17] of 76.2% and a viability, T/C [18] of 59.7%. The viability, T/C [19] was 110%, the viability, T/C [20] was 103% and the viability, T/C [21] was 90.7%. The viability, T/C [22] was 78.7%, the viability, T/C [23] was 69.1% and the viability, T/C [24] was 41.1%. The viability, T/C [25] was 89.3%, the viability, T/C [26] was 90.9% and the viability, T/C [27] was 80.4%. It also gave a viability, T/C [28] of 72.8%, a viability, T/C [29] of 50.6% and a viability, T/C [30] of 24.6%. It also gave a viability, T/C [31] of 79.6%, a viability, T/C [32] of 77.5% and a viability, T/C [33] of 85.6%. The viability, T/C [34] was 64.6%, the viability, T/C [35] was 46.9% and the viability, T/C [36] was 20.6%.
For `O=C(c1cc(Cc2n[nH]c(=O)c3ccccc23)ccc1F)N1CCN(C(=O)C2CC2)CC1` + CNC(=O)c1ccc(Nc2nc(OC3CCCC3)c3c(-c4ccc5nc(C)oc5c4)c[nH]c3n2)c(OC)c1, the IC50 (second compound 0.0316 µM) was > 10000 nM, the IC50 (second compound 0.1 µM) was > 10000 nM and the IC50 (second compound 0.316 µM) was > 10000 nM. The IC50 (second compound 1 µM) was > 10000 nM, the IC50 (second compound 3.16 µM) was > 10000 nM and the IC50 (second compound 10 µM) was > 10000 nM. The viability, T/C [1] was 112%, the viability, T/C [2] was 125% and the viability, T/C [3] was 115%. For the same compound, the viability, T/C [4] was 129%, the viability, T/C [5] was 124% and the viability, T/C [6] was 113%. It also gave a viability, T/C [7] of 129%, a viability, T/C [8] of 127% and a viability, T/C [9] of 106%. For the same compound, the viability, T/C [10] was 129%, the viability, T/C [11] was 127% and the viability, T/C [12] was 105%. It also gave a viability, T/C [13] of 112%, a viability, T/C [14] of 130% and a viability, T/C [15] of 111%. For the same compound, the viability, T/C [16] was 118%, the viability, T/C [17] was 117% and the viability, T/C [18] was 113%. For the same compound, the viability, T/C [19] was 121%, the viability, T/C [20] was 101% and the viability, T/C [21] was 99%. For the same compound, the viability, T/C [22] was 115%, the viability, T/C [23] was 123% and the viability, T/C [24] was 94%. The viability, T/C [25] was 114%, the viability, T/C [26] was 102% and the viability, T/C [27] was 108%. It also gave a viability, T/C [28] of 97.6%, a viability, T/C [29] of 106% and a viability, T/C [30] of 117%. The viability, T/C [31] was 98.5%, the viability, T/C [32] was 97.8% and the viability, T/C [33] was 92.6%. It also gave a viability, T/C [34] of 121%, a viability, T/C [35] of 109% and a viability, T/C [36] of 104%.
